Assay results taken from US9187450B2, “Substituted pyridine compound” (Daiichi Sankyo Company, Limited, priority 2010, dated 2015).

Each compound was assayed against recombinant human CETP protein (Homo sapiens (Human), UniProt P11597) (assay: Test of CETP inhibition activity (in vitro, buffer-based)). Conditions: reconstituted HDL with [14C]-labeled cholesteryl ester, acceptor lipoprotein, 37° C.
Assay type: biochemical
Description: Test of CETP Inhibition Activity (In Vitro, Buffer-Based)
(1) Preparation of Reconstituted HDL
Cholesterol (1.125 μmol), phosphatidyl choline (4.5 μmol) and [^14C]-labeled cholesteryl ester (2.0 μCi; 40 μl) were taken in a glass test tube and well mixed with a vortex, and dried under a nitrogen gas current so that it formed a thin film. The obtained mixture was dissolved in ethanol (200 μl), which was designated as Solution A. A PBS solution [a mixed solution of Na2HPO4 (30 mM), KH2PO4 (8.8 mM), NaCl (60 mM) and EDTA (pH 7.4; 0.67 mM); 4 ml] was taken in a tube and the reaction solution was vigorously stirred with a vortex under a nitrogen current. The above-described Solution A was gently injected into this mixture with a syringe and the reaction solution was vigorously stirred with a vortex for 5 minutes under a nitrogen current. Sodium cholate ([…]; 0.38 ml) was added to the obtained mixture and the reaction solution was stirred for 2 minutes. ApoA-I protein (3 mg) was added to the obtained mixture and the reaction solution was stirred for 2 minutes. The obtained mixture was adjusted to 5 ml with the PBS solution and then dialyzed with the PBS solution. The obtained mixture was designated as the reconstituted HDL.
(2) Preparation of Acceptor Lipoprotein
NaBr was added to the plasma of a healthy person and the density of the mixture was adjusted to 1.019, and the mixture was subjected to density gradient centrifugation (40000 rpm, for 16 hours) to remove the fraction having a density of less than 1.019. NaBr was added to the obtained mixture and the density of the solution was adjusted to 1.063, and the solution was subjected to density gradient centrifugation (40000 rpm, 18 hours) to provide the fraction consisting of IDL (intermediate density lipoprotein) and LDL (1.019<density<1.063). The obtained fraction was dialyzed with the PBS solution. The obtained mixture was designated as the acceptor lipoprotein.
(3) Measurement of CETP Inhibition Activity
A recombinant human CETP protein (manufactured by Roar Biomedical Inc.; 4.5 ng), the acceptor lipoprotein described in (2) above (32.5 μg) and 5,5′-dithio-bis-(2-nitrobenzoic acid) (7 mM, 15 μl) were taken in a 96 well plate and the total amount of the mixture was adjusted to 48.5 μl with the PBS solution. The test compound [DMSO solution (concentration: 0.15, 0.5, 1.5, 5, 15, 50, 150 and 500 μM; 1.5 μl] was added to each well and the mixture was incubated in a thermostatic bath at 37° C. for 60 minutes. The reconstituted HDL (50 μl) described in (1) above was added to each well and the mixture was reacted in a thermostatic bath at 37° C. for 60 minutes. The 96 well plate was moved onto ice and a precipitation reagent [a mixed solution of magnesium chloride (60 mM) and 0.1% dextran sulfate [1/1 (v/v)]; 15 μl] was added to each well, and then the mixture was allowed to stand on ice for 15 minutes. The reaction solution (80 μl) in each well was moved to a filter plate and centrifuged at 1500 rpm for 1 minute, and the filtrate which passed through the filter was designated as the HDL fraction and the radioactivity thereof was measured with a scintillation counter. The percentage decrease in radioactivity in the case where the test compound was added in comparison with that in case where the test compound was not added was designated as the percentage CETP inhibition. The IC50 value was calculated from the percentage CETP inhibition.

Chain of recombinant human CETP protein (P11597 18-493): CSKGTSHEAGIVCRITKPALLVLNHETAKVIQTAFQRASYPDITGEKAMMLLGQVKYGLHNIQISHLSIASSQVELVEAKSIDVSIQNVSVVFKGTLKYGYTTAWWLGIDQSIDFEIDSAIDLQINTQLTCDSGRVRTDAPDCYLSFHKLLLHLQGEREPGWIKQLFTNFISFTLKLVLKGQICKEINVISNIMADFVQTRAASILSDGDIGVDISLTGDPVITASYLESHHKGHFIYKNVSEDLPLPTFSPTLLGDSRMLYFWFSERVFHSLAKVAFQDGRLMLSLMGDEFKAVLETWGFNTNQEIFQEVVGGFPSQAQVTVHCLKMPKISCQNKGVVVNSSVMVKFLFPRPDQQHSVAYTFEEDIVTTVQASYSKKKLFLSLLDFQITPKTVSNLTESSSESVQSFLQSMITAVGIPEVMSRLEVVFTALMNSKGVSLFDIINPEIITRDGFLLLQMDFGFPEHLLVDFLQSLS

| Compound | IC50 |
| --- | --- |
| CC(C)(O)CCOc1cnc(N2CCC(c3nc4c(c(C5CCC(F)(F)CC5)c3[C@@H](F)c3ccc(C(F)(F)F)cc3)[C@@H](O)CC(C)(C)C4)CC2)nc1 (single isomer, unassigned) [Example 43, (−)-4-(4,4-Difluorocyclohexyl)-3-{fluoro[4-(trifluoromethyl)phenyl]methyl}-2-{1-[5-(3-hydroxy-3-methylbutoxy)pyrimidin-2-yl]piperidin-4-yl}-7,7-dimethyl-5,6,7,8-tetrahydroquinolin-5-ol] | 9 nM |
| CN(Cc1cnc(N2CCC(c3nc4c(c(C5CCC(F)(F)CC5)c3[C@@H](F)c3ccc(C(F)(F)F)cc3)[C@@H](O)CC(C)(C)C4)CC2)nc1)S(C)(=O)=O (single isomer, unassigned) [Example 51, (−)-4-(4,4-Difluorocyclohexyl)-3-{fluoro[4-(trifluoromethyl)phenyl]methyl}-7,7-dimethyl-2-[1-(5-{[methyl(methylsulphonyl)amino]methyl}pyrimidin-2-yl)piperidin-4-yl]-5,6,7,8-tetrahydroquinolin-5-ol] | 6 nM |
| CC1(C)Cc2nc(C3CCN(c4ncc(N5CCC(O)CC5)cn4)CC3)c([C@@H](F)c3ccc(C(F)(F)F)cc3)c(C3CCC(F)(F)CC3)c2[C@@H](O)C1 (single isomer, unassigned) [Example 11, (−)-4-(4,4-Difluorocyclohexyl)-3-{fluoro[4-(trifluoromethyl)phenyl]methyl}-2-{1-[5-(4-hydroxypiperidin-1-yl)pyrimidin-2-yl]piperidin-4-yl}-7,7-dimethyl-5,6,7,8-tetrahydroquinolin-5-ol] | 46 nM |
| CC1(C)Cc2nc(C3CCN(c4ncc(OCCCCC(=O)O)cn4)CC3)c([C@@H](F)c3ccc(C(F)(F)F)cc3)c(C3CCC(F)(F)CC3)c2[C@@H](O)C1 (single isomer, unassigned) [Example 23, (−)-2-{1-[5-(4-Carboxybutoxyl)pyrimidin-2-yl]piperidin-4-yl}-4-(4,4-difluorocyclohexyl)-3-{fluoro[4-(trifluoromethyl)phenyl]methyl}-7,7-dimethyl-5,6,7,8-tetrahydroquinolin-5-ol] | 37 nM |
| CC1(C)Cc2nc(C3CCN(c4ncc(N5CC[C@H](O)C5)cn4)CC3)c([C@@H](F)c3ccc(C(F)(F)F)cc3)c(C3CCC(F)(F)CC3)c2[C@@H](O)C1 (single isomer, unassigned) [Example 57] | 33 nM |
| CC(C)Oc1cnc(N2CCC(c3nc4c(c(C5CCC(F)(F)CC5)c3[C@@H](F)c3ccc(C(F)(F)F)cc3)[C@@H](O)CC(C)(C)C4)CC2)nc1 (single isomer, unassigned) [Example 14, (−)-4-(4,4-Difluorocyclohexyl)-3-{fluoro[4-(trifluoromethyl)phenyl]methyl}-7,7-dimethyl-2-{1-[5-(propan-2-yloxy)pyrimidin-2-yl]piperidin-4-yl}-5,6,7,8-tetrahydroquinolin-5-ol] | 97 nM |
| CSc1cnc(N2CCC(c3nc4c(c(C5CCC(F)(F)CC5)c3[C@@H](F)c3ccc(C(F)(F)F)cc3)[C@@H](O)CC(C)(C)C4)CC2)nc1 (single isomer, unassigned) [Example 53, (−)-4-(4,4-Difluorocyclohexyl)-3-{fluoro[4-(trifluoromethyl)phenyl]methyl}-7,7-dimethyl-2-[1-(5-methylthiopyrimidin-2-yl)-piperidin-4-yl]-5,6,7,8-tetrahydroquinolin-5-ol] | 34 nM |
| C[C@H](O)COc1cnc(N2CCC(c3nc4c(c(C5CCC(F)(F)CC5)c3[C@@H](F)c3ccc(C(F)(F)F)cc3)[C@@H](O)CC(C)(C)C4)CC2)nc1 [Example 37, (−)-4-(4,4-Difluorocyclohexyl)-3-{fluoro[4-(trifluoromethyl)phenyl]methyl}-2-[1-(5-{[(2S)-2-hydroxypropyl]oxy}pyrimidin-2-yl)piperidin-4-yl]-7,7-dimethyl-5,6,7,8-tetrahydroquinolin-5-ol] | 25 nM |

Now from value to compound:

| IC50 | Compound |
| --- | --- |
| 13 nM | CC1(C)Cc2nc(C3CCN(c4ncc(OCC(C)(CO)CO)cn4)CC3)c([C@@H](F)c3ccc(C(F)(F)F)cc3)c(C3CCC(F)(F)CC3)c2[C@@H](O)C1 (single isomer, unassigned) [Example 50, (−)-4-(4,4-Difluorocyclohexyl)-3-{fluoro[4-(trifluoromethyl)phenyl]methyl}-2-(1-{5-[3-hydroxy-2-(hydroxymethyl)-2-methylpropoxy]pyrimidin-2-yl}piperidin-4-yl)-7,7-dimethyl-5,6,7,8-tetrahydroquinolin-5-ol] |
| 31 nM | CC1(C)Cc2nc(C3CCN(c4ncc(OCCC(F)(F)F)cn4)CC3)c([C@@H](F)c3ccc(C(F)(F)F)cc3)c(C3CCC(F)(F)CC3)c2[C@@H](O)C1 (single isomer, unassigned) [Example 47, (−)-4-(4,4-Difluorocyclohexyl)-3-{fluoro[4-(trifluoromethyl)phenyl]methyl}-7,7-dimethyl-2-{1-[5-(3,3,3-trifluoropropoxyl)pyrimidin-2-yl]piperidin-4-yl}-5,6,7,8-tetrahydroquinolin-5-ol] |
| 103 nM | CC(C)c1cnc(N2CCC(c3nc4c(c(C5CCC(F)(F)CC5)c3[C@@H](F)c3ccc(C(F)(F)F)cc3)[C@@H](O)CC(C)(C)C4)CC2)nc1 (single isomer, unassigned) [Example 12, 4-(4,4-Difluorocyclohexyl)-3-{fluoro[4-(trifluoromethyl)phenyl]methyl}-7,7-dimethyl-2-{1-[5-(propan-2-yl)pyrimidin-2-yl]piperidin-4-yl}-5,6,7,8-tetrahydroquinolin-5-ol] |
| 48 nM | CC1(C)Cc2nc(C3CCN(c4ncc(CCCC(F)(F)F)cn4)CC3)c([C@@H](F)c3ccc(C(F)(F)F)cc3)c(C3CCC(F)(F)CC3)c2[C@@H](O)C1 (single isomer, unassigned) [Example 33, 4-(4,4-Difluorocyclohexyl)-3-{fluoro[4-(trifluoromethyl)phenyl]methyl}-7,7-dimethyl-2-{1-[5-(4,4,4-trifluorobutyl)pyrimidin-2-yl]piperidin-4-yl}-5,6,7,8-tetrahydroquinolin-5-ol] |
| 10 nM | CN1CCC(Oc2cnc(N3CCC(c4nc5c(c(C6CCC(F)(F)CC6)c4[C@@H](F)c4ccc(C(F)(F)F)cc4)[C@@H](O)CC(C)(C)C5)CC3)nc2)CC1 (single isomer, unassigned) [Example 38, 4-(4,4-Difluorocyclohexyl)-3-{fluoro[4-(trifluoromethyl)phenyl]methyl}-7,7-dimethyl-2-(1-{5-[(1-methylpiperidin-4-yl)oxy]pyrimidin-2-yl}piperidin-4-yl)-5,6,7,8-tetrahydroquinolin-5-ol] |
| 16 nM | CC1(C)Cc2nc(C3CCN(c4ncc(OCCCO)cn4)CC3)c([C@@H](F)c3ccc(C(F)(F)F)cc3)c(C3CCC(F)(F)CC3)c2[C@@H](O)C1 [Example 46, (−)-4-(4,4-Difluorocyclohexyl)-3-{fluoro[4-(trifluoromethyl)phenyl]methyl}-2-{1-[5-(3-hydroxypropoxy)pyrimidin-2-yl]piperidin-4-yl}-7,7-dimethyl-5,6,7,8-tetrahydroquinolin-5-ol] |
| 22 nM | C[C@@H](O)COc1cnc(N2CCC(c3nc4c(c(C5CCC(F)(F)CC5)c3[C@@H](F)c3ccc(C(F)(F)F)cc3)[C@@H](O)CC(C)(C)C4)CC2)nc1 (single isomer, unassigned) [Example 42] |
| 6 nM | CC(C)S(=O)(=O)N(C)Cc1cnc(N2CCC(c3nc4c(c(C5CCC(F)(F)CC5)c3[C@@H](F)c3ccc(C(F)(F)F)cc3)[C@@H](O)CC(C)(C)C4)CC2)nc1 (single isomer, unassigned) [Example 52, 4-(4,4-Difluorocyclohexyl)-3-{fluoro[4-(trifluoromethyl)phenyl]methyl}-7,7-dimethyl-2-[1-(5-{[methyl(propan-2-ylsulfonyl)amino]methyl}pyrimidin-2-yl)piperidin-4-yl]-5,6,7,8-tetrahydroquinolin-5-ol] |
